Measurements as given in publication PMC7930575, “Comparison of the Inhibitory Binding Modes Between the Planar Fascaplysin and Its Nonplanar Tetrahydro-β-carboline Analogs in CDK4” (Frontiers in Chemistry, 2021).
Like-named read-outs stand apart in the source and are kept apart here.

Legend:
HeLa = assay: MTT cytotoxicity assay, HeLa cells, 48 h; type: cell-based; conditions: Homo sapiens, read-out: Cytotoxicity (IC50, μM) HeLa
Experimental: (§1) The cytotoxicity of the target compounds was evaluated via MTT assay; A549, HeLa, HepG2, and WI-38 were selected for the experiment; and the selected cell lines were purchased from Lanzhou Weihuan Biotechnology Development Co., Ltd. All cell lines were maintained in RPMI-1640 medium supplemented with 10% fetal calf serum under the environment of 5% CO2 concentration and 37°C. The incubated tumor cells were seeded in the prepared 96-well plates, respectively, to make them attach for 12 h. Afterward, the cells were processed with the synthesized compounds with different concentrations as well as fascaplysin as the reference group for 48 h. After 48 h, 10 μl of MTT solution (5 mg/ml in PBS) was added into each well and incubated for 4 h. Then, the medium was removed and 100 μl DMSO was added to dissolve the blue-colored formazan. The absorbance was detected at 570 nm by microplate reader to calculate the inhibition rate (%) and the IC50 was defined using GraphPad Prism Software (version 5.02) (shown in Table 1).

A549 = assay: MTT cytotoxicity assay, A549 cells, 48 h; type: cell-based; conditions: Homo sapiens, read-out: Cytotoxicity (IC50, μM) A549
Experimental: as §1

HepG2 = assay: MTT cytotoxicity assay, HepG2 cells, 48 h; type: cell-based; conditions: Homo sapiens, read-out: Cytotoxicity (IC50, μM) HepG2
Experimental: as §1

[1] = MTT cytotoxicity assay, normal cells WI-38, 48 h; type: cell-based; conditions: human
Experimental: as §1

CDK4/CycD3 = biological target: T1, CDK4/CycD3 (Homo sapiens, UniProt P11802); assay: CDK4 kinase inhibition assay (mobility shift assay); type: biochemical; conditions: mean of three independent experiments
T1 construct: purchased Cama
Experimental: In this study, the inhibitory activities of the synthesized compounds against CDK4/CycD3 were also evaluated using mobility shift assay, and fascaplysin was used as the positive control compound. CDK4/CycD3 was from Cama, kinase substrate peptide was from GL, and fascaplysin was from Selleckchem. First, the kinase base buffer should be prepared (50.0 mmol/L HEPES, pH 7.5, 5 mM MgCl2, 1 mmol DTT, 0.0015% Brij-35). Second, 50 μg CDK4 kinase was added to the kinase base buffer to prepare the kinase solution. The kinase base buffer was used to prepare ATP and substrate peptide solutions, and the obtained solutions were mixed. Third, the synthesized compounds as well as the fascaplysin were diluted with DMSO to the desired concentrations. Fourth, the reaction mixture was incubated at 30°C for 40 min, and 25 μl stop buffer was added to stop the reaction. Finally, conversion was read by Caliper, and GraphPad Prism 5.0 was used to calculate the IC50 values of the compounds against enzyme bioactivities (Table 2).

[2] = MTT assay, three independent experiments
[3] = A549, MTT assay, 48 h, three independent experiments
[4] = HepG2, MTT assay, 48 h, three independent experiments
[5] = WI-38 cells (normal cell line), normal cell line, MTT assay, 48 h, three independent experiments, read-out: Cytotoxicity (IC50, μM) WI-38

T1 sequence (P11802 whole entry): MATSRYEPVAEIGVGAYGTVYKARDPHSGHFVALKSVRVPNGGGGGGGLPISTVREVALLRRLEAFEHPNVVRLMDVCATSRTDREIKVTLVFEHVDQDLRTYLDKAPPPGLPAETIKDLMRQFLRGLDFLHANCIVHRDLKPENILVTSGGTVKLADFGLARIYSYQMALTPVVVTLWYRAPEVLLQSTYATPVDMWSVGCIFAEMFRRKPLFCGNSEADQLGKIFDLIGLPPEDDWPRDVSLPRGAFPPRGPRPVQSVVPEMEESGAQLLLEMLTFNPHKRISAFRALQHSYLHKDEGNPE
T1 sequence (P30281 whole entry partner): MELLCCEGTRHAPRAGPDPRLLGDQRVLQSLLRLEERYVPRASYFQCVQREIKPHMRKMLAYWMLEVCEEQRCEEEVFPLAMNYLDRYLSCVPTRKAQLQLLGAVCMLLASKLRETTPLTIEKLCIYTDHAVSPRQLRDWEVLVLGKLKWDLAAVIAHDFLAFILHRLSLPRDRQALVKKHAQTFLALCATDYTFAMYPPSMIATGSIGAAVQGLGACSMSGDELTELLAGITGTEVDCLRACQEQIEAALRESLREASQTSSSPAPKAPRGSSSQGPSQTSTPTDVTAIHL

SMILES	melting point [°C]	IC50 (HeLa; [2]) [µM]	IC50 (A549; [3]) [µM]	IC50 (HepG2; [4]) [µM]	IC50 at 48 h [1, 5] [µM]	IC50 (CDK4/CycD3) [µM]	IC50 (HeLa) [µM]	IC50 (A549; A549, 48 h) [µM]	IC50 (HepG2; HepG2, 48 h) [µM]	IC50 at 48 h [1] [µM]
COC(=O)C1c2[nH]c3ccccc3c2CCN1C(=O)c1ccc2ccccc2c1 (stereo not drawn) [Compound 6h, Methyl-2-(2-naphthoyl)-2,3,4,9-tetrahydro-1H-pyrido [3,4-b] indole-1-carboxylate]	183.6 to 184.5	10.8 ± 2.69	12.7 ± 1.2	19.5 ± 0.43	186 ± 12.4	12.4				
CCOC(=O)C1c2[nH]c3ccccc3c2CCN1C(=O)c1ccc2c(c1)OCO2 (stereo not drawn) [Compound 7i, Ethyl-2-(benzo [d] [1,3]dioxole-5-carbonyl)-2,3,4,9-tetrahydro-1H-pyrido [3,4-b] indole-1-carboxylate]	202.5 to 204.6	6.18 ± 2.78	20 ± 5.57	23.2 ± 9.17	256 ± 56	9.38 ± 1.79				
CCOC(=O)C1c2[nH]c3ccccc3c2CCN1C(=O)c1ccc(OC)cc1 (stereo not drawn) [Compound 7b, Ethyl-2-(4-methoxybenzoyl)-2,3,4,9-tetrahydro-1H-pyrido [3,4-b] indole-1-carboxylate]	206.9 to 209.8	15.4 ± 3.1	15.5 ± 13.4	41.5 ± 2.42	429 ± 38.9	30.7				
COC(=O)C1c2[nH]c3ccccc3c2CCN1C(=O)c1ccccc1 (stereo not drawn) [Compound 6e, Methyl-2-benzoyl-2,3,4,9-tetrahydro-1H-pyrido [3,4-b] indole-1-carboxylate]		16.8 ± 4.12	15.5 ± 1.26	31.8 ± 2.86	118 ± 12.9	20.7				
CCOC(=O)C1c2[nH]c3ccccc3c2CCN1C(=O)c1ccc(F)cc1 (stereo not drawn) [Compound 7a, Ethyl-2-(4-fluorobenzoyl)-2,3,4,9-tetrahydro-1H-pyrido [3,4-b] indole-1-carboxylate]	199.5 to 201.7	29.6 ± 7.07	39.5 ± 4.98	47.5 ± 4.11	255 ± 86.3	31.6				
COC(=O)C1c2[nH]c3ccccc3c2CCN1C(=O)c1ccc(F)cc1 (stereo not drawn) [Compound 6a, Methyl-2-(4-fluorobenzoyl)-2,3,4,9-tetrahydro-1H-pyrido [3,4-b] indole-1-carboxylate]	182.8 to 183.7	28.4 ± 1.12	38.3 ± 2.53	31.6 ± 2.53	253 ± 33.2	29.6				
COC(=O)C1c2[nH]c3ccccc3c2CCN1C(=O)c1ccc(C(F)(F)F)cc1 (stereo not drawn) [Compound 6f, Methyl-2-(4-(trifluoromethyl)benzoyl)-2,3,4,9-tetrahydro-1H-pyrido [3,4-b] indole-1-carboxylate]	193.3 to 194.36	29.9 ± 4.73	38.7 ± 7.25	35.8 ± 3.23	125 ± 26.1	39.6				
COC(=O)C1c2[nH]c3ccccc3c2CCN1C(=O)c1ccc(-c2ccccc2)cc1 (stereo not drawn) [Compound 6c, Methyl-2-([1, 1’-biphenyl]-4-carbonyl)-2,3,4,9-tetrahydro-1H-pyrido [3,4-b] indole-1 carboxylate]	177.8 to 179.6	1.03 ± 0.19	6.53 ± 1.65	5.21 ± 0.58	312 ± 56.1	1.89				
COC(=O)C1c2[nH]c3ccccc3c2CCN1C(=O)c1ccc2c(c1)OCO2 (stereo not drawn) [Compound 6i, Methyl-2-(benzo [d] [1,3]dioxole-5-carbonyl)-2,3,4,9-tetrahydro-1H-pyrido [3,4-b] indole-1-carboxylate]	165.3 to 166.7	3.57 ± 0.93	9.6 ± 3.22	12.2 ± 3.01	247 ± 10.9	3.38				
CCOC(=O)C1c2[nH]c3ccccc3c2CCN1C(=O)c1ccc2ccccc2c1 (stereo not drawn) [Compound 7h, Ethyl-2-(2-naphthoyl)-2,3,4,9-tetrahydro-1H-pyrido [3,4-b] indole-1-carboxylate]	209.6 to 211.5	16.5 ± 6.64	25.5 ± 3.92	17.5 ± 13.8	183 ± 13.2	16.4				
CCOC(=O)C1c2[nH]c3ccccc3c2CCN1C(=O)c1ccc(I)cc1 (stereo not drawn) [Compound 7d, Ethyl-2-(4-iodobenzoyl)-2,3,4,9-tetrahydro-1H-pyrido[3,4-b] indole-1-carboxylate]	175.6 to 176.3	27.6 ± 2.38	20.4 ± 2.68	28.2 ± 0.95	183 ± 17.9	35.3				
COC(=O)C1c2[nH]c3ccccc3c2CCN1C(=O)c1ccc(Cl)cc1 (stereo not drawn) [Compound 6g, Methyl 2-(4-chlorobenzoyl)-2,3,4,9-tetrahydro-1H-pyrido[3,4-b] indole-1-carboxylate]	200.3 to 201.5	22.9 ± 2.31	25.7 ± 8.78	13.7 ± 2.13	375 ± 60	27.5				
COC(=O)C1c2[nH]c3ccccc3c2CCN1C(=O)c1ccc(OC)cc1 (stereo not drawn) [Compound 6b, Methyl-2-(4-methoxybenzoyl)-2,3,4,9-tetrahydro-1H-pyrido [3,4-b] indole-1-carboxylate]	200.8 to 201.6	14.1 ± 2.69	13.2 ± 1.21	26.3 ± 1.88	267 ± 28.9	25.7				
O=C1c2ccccc2-[n+]2ccc3c([nH]c4ccccc43)c21 [Fascaplysin]						0.79 ± 0.72	0.56 ± 0.05	1.05 ± 0.08	0.24 ± 0.04	1.86 ± 0.17
COC(=O)C1c2[nH]c3ccccc3c2CCN1C(=O)c1ccc(I)cc1 (stereo not drawn) [Compound 6d, Methyl-2-(4-iodobenzoyl)-2,3,4,9-tetrahydro-1H-pyrido [3,4-b] indole-1-carboxylate]	195.6 to 196.5	19.4 ± 2.56	10.8 ± 1.17	33.4 ± 5.18	373 ± 62.8	30.3				
CCOC(=O)C1c2[nH]c3ccccc3c2CCN1C(=O)c1ccc(C(F)(F)F)cc1 (stereo not drawn) [Compound 7f, Ethyl-2-(4-(trifluoromethyl)benzoyl)-2,3,4,9-tetrahydro-1H-pyrido [3,4-b] indole-1-carboxylate]		47 ± 4.8	42.1 ± 7.6	16.2 ± 3.72	183 ± 17.9	43.9				
